In one experiment the target is CKIδ wild type (Homo sapiens, UniProt P48730). As to the kind of experiment: CK1δ kinase assay (Kinase-Glo). As to conditions: 10 μM ATP, 2 nM CKIδ, 85 min at 25° C.; read-out: CK1 δ IC50. Format: biochemical. As to the method: The CK1δ kinase assay was performed in a 40 μl final volume in buffer containing 50 mM Tris, pH 7.5, 10 mM MgCl2, 1 mM dithiothreitol, 100 μg/mL BSA with 10 μM ATP, 2 nM CKIδ wild type, and 42 μM peptide substrate PLSRTLp[…] (Flotow et al., 1990) in the presence of 1 μl of CKIδ inhibitor or 4% DMSO. The reaction was incubated for 85 min at 25° C.; detection was carried out as described for the Kinase-Glo Assay (Promega). Luminescent output was measured on the Perkin Elmer Envision plate reader (PerkinElmer, Waltham, Mass.).
(In general: Kinase-Glo measures the ATP left after a reaction by luminescence.)

In a further experiment the target is CKI ε wild type (Homo sapiens, UniProt P49674). As to the kind of experiment: CK1ε kinase assay (Kinase-Glo). Format: biochemical. As to conditions: 10 μM ATP, 2.5 nM CKI ε, 70 min at 25° C.; read-out: CK1 ε:IC50. How it is done: The CK1ε kinase assay was performed in a 40-μl final volume in buffer containing 50 mM Tris, pH 7.5, 10 mM MgCl2, 1 mM dithiothreitol, 100 μg/mL BSA with 10 μM ATP, 2.5 nM CKI ε wild type, and 42 μM peptide substrate PLSRTLp[…] (Flotow et al., 1990) in the presence of 1 μl of CKI ε inhibitor or 4% DMSO. The reaction was incubated for 70 min at 25° C.; detection was carried out as described for the Kinase-Glo Assay (Promega). Luminescent output was measured on the Perkin Elmer Envision plate reader (PerkinElmer, Waltham, Mass.).

Experiment [1] concerns the target T1, human CK1δ (Cos 7 cells cotransfected with mouse Per3-GFP) (Homo sapiens, UniProt P48730).
T1 construct: His tag of the vector pcDNA4/hisA (only the vector name is printed); expressed in transfected cells; host or cells: Cos 7 cells
As to the kind of experiment: CK1 WCA HCS nuclear translocation assay (CK1δ). Format: cell-based. The settings on record: inhibition of mPer3-GFP translocation to the nucleus, overnight exposure, read-out: CK1 δ WCA EC50. As to the method:
(§1) CK1 WCA HCS Nuclear Translocation Assay.
(§2) Cos 7 cells were maintained at 37° C. in 5% CO2 in Dulbecco's Modified Eagle Medium (Gibco 11995) supplemented with 10% fetal bovine serum. Log-phase cells were dislodged with 5 min treatment of TrypLE Express (Gibco 12605) and viable cell count was determined with Cedex cell counter. Cells were diluted in DMEM medium to a density of 1.5e5 viable cells/mL in ⅔ of the final volume of final transfected cell mix. Cells were cotransfected with two plasmid DNAs, mouse Per3-GFP (green fluorescent protein) in pd2EGFP-N1 vector and human CKI in pcDNA4/hisA vector (for CK1Epsilon at a ratio of 1:5 respectively; for CK1δ at a ratio of 1:11 respectively), using Lipofectamine 2000 reagent (Invitrogen) according to the manufacturer's recommendations. The transfection mix contained approximately 0.83 μg/mL of DNA and 6 μL/mL of Lipofectamine 2000, in a total of ⅓ of the final transfection volume in Opti-MEM I medium (Invitrogen). After 20 min at rt, the cell mix was combined with the DNA transfection mix, per manufacturer instructions. 50 μL of the transfected cell suspension was dispensed per well by multidrop dispenser into Greiner 384-well Cellcoat (PDL) plates (Greiner #781946).
(§3) Compounds were solubilized in 100% DMSO, diluted with Opti-MEM I to a 4× concentration before addition to plated cells. After overnight exposure at 37° C. in a CO2 incubator, cells were fixed by the addition of 12% paraformaldehyde (Electron Microscopy Sciences, Hatfield, Pa.) in phosphate-buffered saline (PBS) with 20% sucrose to a final concentration of 4%, and then the cells were incubated for 30 min at rt. Fixative was removed, and cells were washed with PBS and then stained with 0.4 μg/ml Hoechst dye (Invitrogen) in blocking buffer containing 4% goat serum (Vector Labs s-1000) and 0.1% TritonX (Sigma T8787) for 1 h. Cells were washed again with PBS and stored at 4° C. in PBS or scanned immediately with the Cellomics ArrayScan VTI. CKIδ dependent nuclear localization of the GFP-tagged mPer3 protein was quantitated using the Cellomics ArrayScan VTI system utilizing the Cytoplasm to Nucleus translocation bioapplication to calculate the Nuclear-Cytoplasmic Intensity difference. Inhibitors of CK1 δ/ε were tested across a dose response curve to evaluate their ability to inhibit mPer3-GFP translocation to the nucleus. Cells with a total intensity of mPER3:GFP expression equal to or greater than 20,000 are included in analysis.

Experiment [2] has as its target T2, human CK1Epsilon (Cos 7 cells cotransfected with mouse Per3-GFP) (Homo sapiens, UniProt P49674).
T2 construct: His tag of the vector pcDNA4/hisA (only the vector name is printed); expressed in transfected cells; host or cells: Cos 7 cells
As to the kind of experiment: CK1 WCA HCS nuclear translocation assay (CK1ε). As to conditions: inhibition of mPer3-GFP translocation to the nucleus, overnight exposure, read-out: CK1 ε WCA EC50. Format: cell-based. As to the method: as §1, §2, §3

Structures are written as SMILES.

T2 sequence (P49674 whole entry): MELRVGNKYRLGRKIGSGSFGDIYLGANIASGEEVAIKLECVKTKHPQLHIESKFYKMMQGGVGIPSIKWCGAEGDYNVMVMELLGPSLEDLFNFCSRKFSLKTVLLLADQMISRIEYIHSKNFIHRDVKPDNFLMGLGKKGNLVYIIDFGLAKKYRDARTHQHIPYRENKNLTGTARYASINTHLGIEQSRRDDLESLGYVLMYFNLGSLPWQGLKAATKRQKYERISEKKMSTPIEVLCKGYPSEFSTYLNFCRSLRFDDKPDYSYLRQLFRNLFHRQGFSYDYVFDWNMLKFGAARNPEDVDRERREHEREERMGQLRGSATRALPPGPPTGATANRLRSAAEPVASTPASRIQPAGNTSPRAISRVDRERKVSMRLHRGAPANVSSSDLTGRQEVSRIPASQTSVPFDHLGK
CKI ε wild type, sequence (P49674 whole entry): as above
CKIδ wild type, sequence (P48730 whole entry): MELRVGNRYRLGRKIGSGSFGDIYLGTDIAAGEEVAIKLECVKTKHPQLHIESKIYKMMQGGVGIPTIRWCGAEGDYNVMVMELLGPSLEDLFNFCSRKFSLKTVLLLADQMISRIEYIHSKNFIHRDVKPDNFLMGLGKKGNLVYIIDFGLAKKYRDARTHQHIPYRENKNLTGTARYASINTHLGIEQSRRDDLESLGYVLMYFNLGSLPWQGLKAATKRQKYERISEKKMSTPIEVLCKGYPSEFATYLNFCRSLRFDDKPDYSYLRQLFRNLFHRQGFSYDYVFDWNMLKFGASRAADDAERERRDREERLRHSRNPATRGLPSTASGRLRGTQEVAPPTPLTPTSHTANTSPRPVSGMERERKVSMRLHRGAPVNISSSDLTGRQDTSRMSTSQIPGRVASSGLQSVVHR
T1 sequence (P48730 whole entry): as above

As to `Cn1cc(-c2ccnc3c2OCCNC3)c(-c2ccc(F)cc2)n1` [Example 7, 9-[3-(4-fluorophenyl)-1-methyl-1H-pyrazol-4-yl]-2,3,4,5-tetrahydropyrido[2,3-f][1,4]oxazepine], the IC50 on CKIδ wild type turned out to be 0.00601 µM; on CKI ε wild type, 0.0276 µM. The EC50 in experiment [1] was 0.0392 µM; in experiment [2], 0.291 µM.

Turning to `Cn1cc(-c2ccnc3c2C(=O)OC3)c(-c2ccc(F)cc2)n1` [Example 1, 4-(3-(4-fluorophenyl)-1-methyl-1H-pyrazol-4-yl)furo[3,4-b]pyridin-5(7H)-one], the IC50 at CKIδ wild type was 0.00791 µM; on CKI ε wild type it was 0.0269 µM. In addition, the figures for the concentration for a half-maximal effect (EC50) in experiment [1] and in experiment [2] were 0.0598 µM and 0.355 µM, respectively.

As for `Cn1cc(-c2ccnc3c2C(=O)NC3)c(-c2ccc(F)cc2)n1` [Example 4, 4-[3-(4-fluorophenyl)-1-methyl-1H-pyrazol-4-yl]-6,7-dihydro-5H-pyrrolo[3,4-b]pyridin-5-one], the figures for the IC50 at CKIδ wild type and on CKI ε wild type were 0.0139 µM and 0.0727 µM, respectively. Further, the EC50 in experiment [1] was found to be 0.122 µM; in experiment [2] it was 0.684 µM.

`Cn1cc(-c2ccnc3c2CN(C(=O)C2CCOC2)C3)c(-c2ccc(F)cc2)n1` (centres unmarked) [Example 16, 4-[3-(4-fluorophenyl)-1-methyl-1H-pyrazol-4-yl]-6-(tetrahydrofuran-3-ylcarbonyl)-6,7-dihydro-5H-pyrrolo[3,4-b]pyridine]: the EC50 in experiment [1] was 0.0381 µM; in experiment [2] it was 0.218 µM.

With `CCC(=O)N1Cc2nccc(-c3cn(C)nc3-c3ccc(F)cc3)c2C1` [Example 13, 4-[3-(4-fluorophenyl)-1-methyl-1H-pyrazol-4-yl]-6-propionyl-6,7-dihydro-5H-pyrrolo[3,4-b]pyridine], the EC50 amounted to 0.0162 µM in experiment [1] and 0.124 µM in experiment [2].

As for `Cn1cc(-c2ccnc3c2CN(C(=O)C2CCOCC2)C3)c(-c2ccc(F)cc2)n1` [Example 19, 4-[3-(4-fluorophenyl)-1-methyl-1H-pyrazol-4-yl]-6-(tetrahydro-2H-pyran-4-ylcarbonyl)-6,7-dihydro-5H-pyrrolo[3,4-b]pyridine], the EC50 amounted to 0.0548 µM in experiment [1] and 0.566 µM in experiment [2].

For the compound `CC1CNCc2nccc(-c3cn(C)nc3-c3ccc(F)cc3)c2O1` (racemic) [Example 8, 9-[3-(4-fluorophenyl)-1-methyl-1H-pyrazol-4-yl]-2-methyl-2,3,4,5-tetrahydropyrido[2,3-f][1,4]oxazepine], the EC50 in experiment [1] was determined as 0.047 µM; in experiment [2] it was 0.217 µM.

Turning to `COCC(=O)N1Cc2nccc(-c3cn(C)nc3-c3ccc(F)cc3)c2C1` [Example 17, 4-[3-(4-fluorophenyl)-1-methyl-1H-pyrazol-4-yl]-6-(methoxyacetyl)-6,7-dihydro-5H-pyrrolo[3,4-b]pyridine], the EC50 in experiment [1] came out at 0.0475 µM; in experiment [2], 0.21 µM.

`CC(C)C(=O)N1Cc2nccc(-c3cn(C)nc3-c3ccc(F)cc3)c2C1` [Example 18, 4-[3-(4-fluorophenyl)-1-methyl-1H-pyrazol-4-yl]-6-isobutyryl-6,7-dihydro-5H-pyrrolo[3,4-b]pyridine]: the values for the EC50 in experiment [1] and in experiment [2] were 0.0395 µM and 0.195 µM, respectively.

Take `Cn1cc(-c2ccnc3c2CN(C(=O)OCc2ccccc2)C3)c(-c2ccc(F)cc2)n1` [Example 22, benzyl 4-[3-(4-fluorophenyl)-1-methyl-1H-pyrazol-4-yl]-5,7-dihydro-6H-pyrrolo[3,4-b]pyridine-6-carboxylate]: the EC50 in experiment [1] amounted to 0.0516 µM; in experiment [2] it was 0.275 µM.

Turning to `Cn1cc(-c2ccnc3c2CN(S(C)(=O)=O)C3)c(-c2ccc(F)cc2)n1` [Example 10, 4-[3-(4-fluorophenyl)-1-methyl-1H-pyrazol-4-yl]-6-(methylsulfonyl)-6,7-dihydro-5H-pyrrolo[3,4-b]pyridine], the IC50 at CKIδ wild type stood at 0.00311 µM; at CKI ε wild type, 0.0108 µM. Further, the EC50 in experiment [1] worked out at 0.0135 µM; in experiment [2], 0.0624 µM.

As to `CC1COc2c(-c3cn(C)nc3-c3ccc(F)cc3)ccnc2CN1` (centres unmarked) [Example 9, 9-[3-(4-fluorophenyl)-1-methyl-1H-pyrazol-4-yl]-3-methyl-2,3,4,5-tetrahydropyrido[2,3-f][1,4]oxazepine], the EC50 was found to be 0.199 µM in experiment [1] and 0.834 µM in experiment [2].

Consider `CCN1Cc2nccc(-c3cn(C)nc3-c3ccc(F)cc3)c2C1=O` [Example 34, 6-ethyl-4-[3-(4-fluorophenyl)-1-methyl-1H-pyrazol-4-yl]-6,7-dihydro-5H-pyrrolo[3,4-b]pyridin-5-one], for which the IC50 is 0.0124 µM at CKIδ wild type and 0.0615 µM at CKI ε wild type. Moreover, the results for the EC50 in experiment [1] and in experiment [2] were 0.099 µM and 0.468 µM, respectively.

Take `CCS(=O)(=O)N1Cc2nccc(-c3cn(C)nc3-c3ccc(F)cc3)c2C1` [Example 11, 6-(ethylsulfonyl)-4-[3-(4-fluorophenyl)-1-methyl-1H-pyrazol-4-yl]-6,7-dihydro-5H-pyrrolo[3,4-b]pyridine]: the EC50 in experiment [1] is 0.103 µM; in experiment [2] it was 0.668 µM.

Usually IC50 stands for the concentration at which inhibition is half-maximal. As a reminder, the EC50 is the concentration at which the effect is half-maximal.

These data come from patent US8536164B2, “Fused pyridine compounds as casein kinase inhibitors” (Pfizer Inc., priority 2010, dated 2013).
